Values of other authors in patent US9562052B2, “Bicyclicpyridine derivatives” (Hoffmann-La Roche Inc., priority 2012, dated 2017).

Legend:
[1] = test system: ApoE KO mice
[2] = test system: ob/ob mice

CCc1c(-c2ccccc2)c(-c2ccccc2)nn1-c1ccccc1-c1cccc(OCC(=O)O)c1 [BMS309403]
atherosclerotic plaques formation [1]: decrease
body weight and energy consumption [2]: no change
hepatic steatosis [2]: reduction
glucose uptake in muscle and adipose ([2]; clamp study): increased
hepatic glucose production ([2]; clamp study): reduction
